The series in a line: recombinant UMI read abundance after kanamycin selection (control-corrected) (log10(CPM+1)); higher = more efficient recombination; extreme values may be limits of the assay; sequences stand for … in AGTGCAGAGAAAATCGGCCAGTTTTCTCTGCCTGCAGTCCGCATGCCGTGGGACCCCTTGGGTTCTAACCTGTTGCCTAGATTTATGCAGCGGACTGCCTTTCTCCCAAAGTGATAAACCGG…AGGTTGGTTTCACT; site = the 11-nt donor. The method, boiled down: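 Values are reported as log10(CPM+1), obtained by converting sequencing counts to CPM, averaging replicates and scaling by control-derived factors. The counts came from recombinant UMIs amplified by PCR across the donor–target junction. These UMIs came from a pooled Escherichia coli screen of donor and donor-binding-loop pairs for the IS621 bridge recombinase, plated with IPTG (0.07 mM) plus kanamycin or left unselected, in two replicates each.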
With “GCAGAATCATGGACCGGTTTTCCCGGTAATCCGTATTTGCA (site GCAGAATCTTG)”, the “recombinant UMI read abundance (log10)” value is 2.13. In the case of “GCAGACACATGGACCGGTTTTCCCGGTAATCCGTATTTGAT (site GCAGACACTAT)” it was 1.89; in that of “GCAGACCCATGGACCGGTTTTCCCGGTAATCCGTATTTGAT (site GCAGACCCTAT)”, 0.819.

As for “GCAGACCCATGGACCGGTTTTCCCGGTAATCCGTATTTGGG (site GCAGACCCTCC)”, the “recombinant UMI read abundance (log10)” value worked out at 0.0178. Regarding “GCAGAGACATGGACCGGTTTTCCCGGTAATCCGTATTTGCG (site ACAGAGACTCG)”, the “recombinant UMI read abundance (log10)” value was 2.51. As for “GCAGAGACATGGACCGGTTTTCCCGGTAATCCGTATTTGCG (site CCAGAGACTCG)”, the figure is 2.58; as for “GCAGAGACATGGACCGGTTTTCCCGGTAATCCGTATTTGCG (site GCAGAGACTCG)”, 2.45.

For the sequence “GCAGAGACATGGACCGGTTTTCCCGGTAATCCGTATTTGCG (site TCAGAGACTCG)”, the “recombinant UMI read abundance (log10)” value turned out to be 2.34. Turning to “GCAGCCCCATGGACCGGTTTTCCCGGTAATCCGTATTTGCT (site GCAGCCCCTAG)”, the “recombinant UMI read abundance (log10)” value was 2.32. As for “GCAGCGGCATGGACCGGTTTTCCCGGTAATCCGTATTTGCC (site GCAGCGGCTGG)”, the “recombinant UMI read abundance (log10)” value was determined as 1.22. As for “GCAGGAGCATGGACCGGTTTTCCCGGTAATCCGTATTTGGA (site GCAGGAGCTTC)”, the figure is 1.41.

As for “GCAGGCACATGGACCGGTTTTCCCGGTAATCCGTATTTGCA (site GCAGGCACTTG)”, the “recombinant UMI read abundance (log10)” value is 2.39. In the case of “GCAGGCGCATGGACCGGTTTTCCCGGTAATCCGTATTTGCG (site GCAGGCGCTCG)”, the “recombinant UMI read abundance (log10)” value turned out to be 2.03.

On to “GCAGGTGCATGGACCGGTTTTCCCGGTAATCCGTATTTGGC (site GCAGGTGCTGC)”, for which the “recombinant UMI read abundance (log10)” value stood at 1.53. As for “GCAGTATCATGGACCGGTTTTCCCGGTAATCCGTATTTGCT (site ACAGTATCTTG)”, the “recombinant UMI read abundance (log10)” value worked out at 0. As for “GCAGTATCATGGACCGGTTTTCCCGGTAATCCGTATTTGCT (site GCAGTATCTAG)”, the figure is 2.7; as for “GCAGTGTCATGGACCGGTTTTCCCGGTAATCCGTATTTGAT (site GCAGTGTCTAT)”, 2.82; as for “GCAGTTACATGGACCGGTTTTCCCGGTAATCCGTATTTGGA (site GCAGTTACTTC)”, 1.1. On to “GCATAGACATGGACCGGTTTTCCCGGTAATCCGTATTTGCC (site GAATAGACTGG)”, for which the “recombinant UMI read abundance (log10)” value worked out at 0.0508. In the case of “GCATAGACATGGACCGGTTTTCCCGGTAATCCGTATTTGCC (site GCATAGACTGG)” it was 1.74. In the case of “GCATAGACATGGACCGGTTTTCCCGGTAATCCGTATTTGCC (site GGATAGACTGG)”, the “recombinant UMI read abundance (log10)” value stood at 0. For “GCATAGACATGGACCGGTTTTCCCGGTAATCCGTATTTGCC (site GTATAGACTGG)”, the “recombinant UMI read abundance (log10)” value worked out at 0. As for “GCATGGTCATGGACCGGTTTTCCCGGTAATCCGTATTTGGA (site GCATGGTCTTC)”, the figure is 1.31. In the case of “GCATGTGCATGGACCGGTTTTCCCGGTAATCCGTATTTGGT (site GCATGTGCTAC)” it was 1.79; in that of “GCATTGACATGGACCGGTTTTCCCGGTAATCCGTATTTGTT (site GCATTGACTAA)”, 1.4. In the case of “GCCAACTCATGGACCGGTTTTCCCGGTAATCCGTATTTGTT (site GCCAACTCTAA)” it was 1.65; in that of “GCCAAGCCATGGACCGGTTTTCCCGGTAATCCGTATTTGCC (site GCCAAGCCTGG)”, 0. Consider “GCCAAGTCATGGACCGGTTTTCCCGGTAATCCGTATTTGGG (site GCCAAGTCTCC)”, for which the “recombinant UMI read abundance (log10)” value stood at 0.538. As to “GCCAATTCATGGACCGGTTTTCCCGGTAATCCGTATTTGCC (site ACCAATTCTGG)”, the “recombinant UMI read abundance (log10)” value was determined as 0. As for “GCCAATTCATGGACCGGTTTTCCCGGTAATCCGTATTTGCC (site CCCAATTCTGG)”, the figure is 0; as for “GCCAATTCATGGACCGGTTTTCCCGGTAATCCGTATTTGCC (site GCCAATTCTGG)”, 0.426; as for “GCCAATTCATGGACCGGTTTTCCCGGTAATCCGTATTTGCC (site TCCAATTCTGG)”, 0.

As for “GCCACACCATGGACCGGTTTTCCCGGTAATCCGTATTTGTA (site GCCACACCTTA)”, the “recombinant UMI read abundance (log10)” value amounted to 0.0107.

On to “GCCACACCATGGACCGGTTTTCCCGGTAATCCGTATTTGTA (site GCCACCCCTTA)”, for which the “recombinant UMI read abundance (log10)” value amounted to 0.00331. As for “GCCACACCATGGACCGGTTTTCCCGGTAATCCGTATTTGTA (site GCCACGCCTTA)”, the figure is 0.00626. In the case of “GCCACACCATGGACCGGTTTTCCCGGTAATCCGTATTTGTA (site GCCACTCCTTA)” it was 0.0198; in that of “GCCACGGCATGGACCGGTTTTCCCGGTAATCCGTATTTGTA (site GCCACGACTTA)”, 1.24; in that of “GCCACGGCATGGACCGGTTTTCCCGGTAATCCGTATTTGTA (site GCCACGCCTTA)”, 0.106. In the case of “GCCACGGCATGGACCGGTTTTCCCGGTAATCCGTATTTGTA (site GCCACGGCTTA)” it was 1.62. As for “GCCACGGCATGGACCGGTTTTCCCGGTAATCCGTATTTGTA (site GCCACGTCTTA)”, the “recombinant UMI read abundance (log10)” value turned out to be 0.163. In the case of “GCCAGCGCATGGACCGGTTTTCCCGGTAATCCGTATTTGCC (site GCCAGCGCTGG)”, the “recombinant UMI read abundance (log10)” value turned out to be 1.98.

On to “GCCCCGTCATGGACCGGTTTTCCCGGTAATCCGTATTTGAT (site GCCCCGTCTAT)”, for which the “recombinant UMI read abundance (log10)” value was 2. “GCCCCTTCATGGACCGGTTTTCCCGGTAATCCGTATTTGGG (site GCCCCTTCTCC)”: the “recombinant UMI read abundance (log10)” value amounted to 0.712. In the case of “GCCGACACATGGACCGGTTTTCCCGGTAATCCGTATTTGTA (site GCCGACACTTA)” it was 1.4; in that of “GCCGATTCATGGACCGGTTTTCCCGGTAATCCGTATTTGCT (site GCCGATTCTAG)”, 1.88; in that of “GCCGCCCCATGGACCGGTTTTCCCGGTAATCCGTATTTGGC (site GCCGCCCCTGC)”, 0. In the case of “GCCGCTTCATGGACCGGTTTTCCCGGTAATCCGTATTTGGA (site GCCGCTTCTTC)”, the “recombinant UMI read abundance (log10)” value is 1.23. As for “GCCGGGCCATGGACCGGTTTTCCCGGTAATCCGTATTTGCA (site GCCGGGCCTTG)”, the figure is 0; as for “GCCGTACCATGGACCGGTTTTCCCGGTAATCCGTATTTGTT (site GCCGTACCTAA)”, 0.0103; as for “GCCTAGCCATGGACCGGTTTTCCCGGTAATCCGTATTTGTG (site GCCTAGCCTCA)”, 0.155. In the case of “GCCTATACATGGACCGGTTTTCCCGGTAATCCGTATTTGAC (site GCCTATACTGT)” it was 2.21; in that of “GCCTGCCCATGGACCGGTTTTCCCGGTAATCCGTATTTGAT (site GCATGCCCTAT)”, 0.0137. As to “GCCTGCCCATGGACCGGTTTTCCCGGTAATCCGTATTTGAT (site GCCTGCCCTAT)”, the “recombinant UMI read abundance (log10)” value was found to be 0.201. For the sequence “GCCTGCCCATGGACCGGTTTTCCCGGTAATCCGTATTTGAT (site GCGTGCCCTAT)”, the “recombinant UMI read abundance (log10)” value was 0.0203. For the sequence “GCCTGCCCATGGACCGGTTTTCCCGGTAATCCGTATTTGAT (site GCTTGCCCTAT)”, the “recombinant UMI read abundance (log10)” value stood at 0.00989. In the case of “GCGAAAACATGGACCGGTTTTCCCGGTAATCCGTATTTGAT (site GCGAAAACTAA)” it was 0; in that of “GCGAAAACATGGACCGGTTTTCCCGGTAATCCGTATTTGAT (site GCGAAAACTAC)”, 0.0215. In the case of “GCGAAAACATGGACCGGTTTTCCCGGTAATCCGTATTTGAT (site GCGAAAACTAG)” it was 0; in that of “GCGAAAACATGGACCGGTTTTCCCGGTAATCCGTATTTGAT (site GCGAAAACTAT)”, 1.66. For the sequence “GCGAAAACATGGACCGGTTTTCCCGGTAATCCGTATTTGTT (site GCGAAAACTAA)”, the “recombinant UMI read abundance (log10)” value stood at 2.31. In the case of “GCGAAAACATGGACCGGTTTTCCCGGTAATCCGTATTTGTT (site GCGAAAACTAC)”, the “recombinant UMI read abundance (log10)” value was 0. As for “GCGAAAACATGGACCGGTTTTCCCGGTAATCCGTATTTGTT (site GCGAAAACTAG)”, the figure is 1.18; as for “GCGAAAACATGGACCGGTTTTCCCGGTAATCCGTATTTGTT (site GCGAAAACTAT)”, 0; as for “GCGAAACCATGGACCGGTTTTCCCGGTAATCCGTATTTGCT (site GCGAAAACTAG)”, 0. Turning to “GCGAAACCATGGACCGGTTTTCCCGGTAATCCGTATTTGCT (site GCGAAACCTAG)”, the “recombinant UMI read abundance (log10)” value is 0. With “GCGAAACCATGGACCGGTTTTCCCGGTAATCCGTATTTGCT (site GCGAAAGCTAG)”, the “recombinant UMI read abundance (log10)” value worked out at 0. Consider “GCGAAACCATGGACCGGTTTTCCCGGTAATCCGTATTTGCT (site GCGAAATCTAG)”, for which the “recombinant UMI read abundance (log10)” value came to 0.

Turning to “GCGAAGCCATGGACCGGTTTTCCCGGTAATCCGTATTTGGT (site GCGAAGCCTAC)”, the “recombinant UMI read abundance (log10)” value worked out at 0.885.

These data come from the supplement of paper PMC11208160.
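Further: IS621 bridge recombinase in Escherichia coli cells against a fixed T5 target plasmid.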
